Our source for the IC50 values is patent US7893074B2, “2, 4-pyrimidinediamines useful in the treatment of neoplastic diseases, inflammatory and immune system disorders” (Novartis AG, priority 2003, dated 2011).

Like-named read-outs stand apart in the source and are kept apart here. Where only a bound is given, the exact number is not on record here.

In experiment [1] the target is Focal Adhesion Kinase (FAK) (Homo sapiens, UniProt Q05397). Nature of the experiment: FAK assay system (Focal Adhesion Kinase inhibition). Type of experiment: biochemical. The following applies: read-out: FAK IC50.
Chain of Focal Adhesion Kinase (FAK) (Q05397 384-706): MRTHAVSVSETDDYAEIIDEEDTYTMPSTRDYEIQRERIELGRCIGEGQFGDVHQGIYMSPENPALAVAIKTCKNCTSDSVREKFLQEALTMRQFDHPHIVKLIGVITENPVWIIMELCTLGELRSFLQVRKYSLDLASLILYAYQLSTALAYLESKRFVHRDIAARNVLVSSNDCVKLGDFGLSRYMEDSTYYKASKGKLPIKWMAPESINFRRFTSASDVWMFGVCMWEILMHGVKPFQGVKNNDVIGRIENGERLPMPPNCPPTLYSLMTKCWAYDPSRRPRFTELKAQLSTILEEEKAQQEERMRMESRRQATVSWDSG
Experiment [2] relates to Mouse mammary carcinoma 4T1 cells. The experiment in a line: Anchorage-independent tumor cell growth assay. The format is cell-based. How it is done: Cells are cultured for 2 h and inhibitors are added at various concentrations in a final concentration of 0.1% DMSO. After 48 h, cell growth is assayed with the cell counting kit-8 (Wako Pure Chemical), which uses a water soluble tetrazolium salt WST8. Twenty μL of the reagent is added into each well and cells are further cultured for 2 h. The optical density is measured at 450 nm.

Another experiment deals with FAK (Mus musculus, UniProt P34152). Nature of the experiment: Phos IC50 (phosphorylation). The format is cell-based.
Chain of FAK (P34152 2-1052): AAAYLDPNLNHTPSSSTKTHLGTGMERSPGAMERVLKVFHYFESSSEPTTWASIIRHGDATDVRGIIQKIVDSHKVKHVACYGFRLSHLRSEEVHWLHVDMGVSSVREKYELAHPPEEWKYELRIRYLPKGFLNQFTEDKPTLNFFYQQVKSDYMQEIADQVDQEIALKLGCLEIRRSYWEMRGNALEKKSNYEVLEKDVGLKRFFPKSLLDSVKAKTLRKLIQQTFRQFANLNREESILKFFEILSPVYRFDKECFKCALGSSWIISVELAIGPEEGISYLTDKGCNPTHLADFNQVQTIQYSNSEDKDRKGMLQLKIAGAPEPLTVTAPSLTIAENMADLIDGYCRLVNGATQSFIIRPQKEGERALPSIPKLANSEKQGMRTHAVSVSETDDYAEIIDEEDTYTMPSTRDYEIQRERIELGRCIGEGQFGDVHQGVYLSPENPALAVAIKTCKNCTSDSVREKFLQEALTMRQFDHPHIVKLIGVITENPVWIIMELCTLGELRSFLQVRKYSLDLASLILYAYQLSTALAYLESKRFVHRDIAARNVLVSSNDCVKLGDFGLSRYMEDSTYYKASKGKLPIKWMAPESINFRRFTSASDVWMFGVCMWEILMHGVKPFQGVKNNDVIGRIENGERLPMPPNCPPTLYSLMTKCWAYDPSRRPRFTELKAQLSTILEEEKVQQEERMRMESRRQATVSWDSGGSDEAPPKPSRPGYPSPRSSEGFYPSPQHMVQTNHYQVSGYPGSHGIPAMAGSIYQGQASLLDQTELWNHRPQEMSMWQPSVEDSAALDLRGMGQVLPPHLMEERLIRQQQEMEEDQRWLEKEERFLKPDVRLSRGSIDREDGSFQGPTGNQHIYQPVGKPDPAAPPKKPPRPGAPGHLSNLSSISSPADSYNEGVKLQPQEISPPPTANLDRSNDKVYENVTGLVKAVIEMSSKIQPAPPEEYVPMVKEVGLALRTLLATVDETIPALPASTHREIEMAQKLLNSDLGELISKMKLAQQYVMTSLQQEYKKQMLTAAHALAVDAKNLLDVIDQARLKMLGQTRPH

In general, IC50 refers to the concentration that inhibits the measured activity by half.

Take `CCOc1ccc(N2CCOCC2)cc1Nc1ncc(Br)c(Nc2ccccc2S(=O)(=O)NC)n1` [Example 3-57]: the IC50 was found to be 28 nM in experiment [1]; 3000 nM in experiment [2] (Mus musculus, 4T1); 610 nM on FAK.
`CNC(=O)c1cc(N2CCN(C)CC2)ccc1Nc1nc(Nc2ccc(N3CCOCC3)cc2OC)ncc1Cl` [Example 35-1]: the IC50 in experiment [1] was 6.8 nM; in experiment [2] (Mus musculus, 4T1), 1430 nM; against FAK, > 10000 nM.
In the case of `COc1cc(N2CCN(C(C)=O)CC2)ccc1Nc1ncc(Cl)c(Nc2ccccc2S(=O)(=O)C2CC2)n1` [Example 30-2], the 50% inhibitory concentration (IC50) in experiment [1] turned out to be 12 nM; in experiment [2] (Mus musculus, 4T1) it was 470 nM; at FAK, 200 nM.
For `CCN(CC)C(=O)C1CCCN(c2ccc(Nc3ncc(Cl)c(Nc4ccccc4S(=O)(=O)NC(C)C)n3)c(OC)c2)C1` (stereo not drawn) [Example 19-18] the same measures were 7 nM, 870 nM and 130 nM.
For `CCC(CC)S(=O)(=O)c1ccccc1Nc1nc(Nc2ccc(N3CCC(N4CCCCC4)CC3)cc2OC)ncc1Cl` [Example 29-2] the same measures were 3.3 nM, 1100 nM and 700 nM.
Take `CNS(=O)(=O)c1ccccc1Nc1nc(Nc2cccc(OC)c2OC)ncc1Br` [Example 3-14]: the 50% inhibitory concentration (IC50) in experiment [1] turned out to be 54 nM; in experiment [2] (Mus musculus, 4T1), 5000 nM; on FAK it was 400 nM.
Consider `CNC(=O)c1c(C)cccc1Nc1nc(Nc2ccc(N3CCC(N4CCCCC4)CC3)cc2OC)ncc1Cl` [Example 10-2], for which the IC50 is 26 nM in experiment [1]; 1060 nM in experiment [2] (Mus musculus, 4T1); 900 nM at FAK.
For `CCCOc1ccc(OC)cc1Nc1ncc(Br)c(Nc2ccccc2S(=O)(=O)NC)n1` [Example 3-63] the same measures were 27 nM, > 10000 nM and > 10000 nM.
The like results for `CNC(=O)c1ccccc1Nc1nc(Nc2cccc3c2ccn3C)ncc1Cl` [Example 7-28] were, in that order, 34 nM, 150 nM and 1000 nM.
The like results for `COc1cc(NC2CCN(C)CC2)ccc1Nc1ncc(Cl)c(Nc2ccccc2S(=O)(=O)NC(C)C)n1` [Example 19-32] were, in that order, 1.4 nM, 310 nM and 200 nM.
For `CNC(=O)c1c(C)cccc1Nc1nc(Nc2ccc(OC3CCN(C)CC3)cc2OC)ncc1Cl` [Example 10-1], the IC50 amounted to 39 nM in experiment [1]; 440 nM in experiment [2] (Mus musculus, 4T1); 1000 nM at FAK.
Regarding `CCNC(=O)c1ccccc1Nc1nc(Nc2ccc(N3CCN(C)CC3)cc2OC)ncc1Cl` [Example 9-2], the IC50 in experiment [1] was determined as 15 nM; in experiment [2] (Mus musculus, 4T1), 810 nM; at FAK, 500 nM.
The like results for `COc1cc(N2CCC[C@@H](C(N)=O)C2)ccc1Nc1ncc(Cl)c(Nc2ccccc2S(=O)(=O)C2CC2)n1` [Example 30-6] were, in that order, 15 nM, 1030 nM and 1000 nM.
In the case of `CNS(=O)(=O)c1ccccc1Nc1nc(Nc2ccc(F)cc2OC)ncc1Cl` [Example 20-24], the IC50 in experiment [1] turned out to be 19 nM; in experiment [2] (Mus musculus, 4T1), 2000 nM; against FAK, 480 nM.
In the case of `CNS(=O)(=O)c1ccccc1Nc1nc(Nc2cc(OC)ccc2C)ncc1Br` [Example 3-3], the IC50 in experiment [1] came out at 9.1 nM; in experiment [2] (Mus musculus, 4T1), 800 nM; against FAK, 140 nM.
For the compound `CCS(=O)(=O)c1ccccc1Nc1nc(Nc2ccc(CN3CCN(C)CC3)cc2OC)ncc1Cl` [Example 27-7], the concentration for half-maximal inhibition (IC50) in experiment [1] stood at 5.5 nM; in experiment [2] (Mus musculus, 4T1) it was 570 nM; at FAK, 2000 nM.
For `CNC(=O)c1ccccc1Nc1nc(Nc2ccc(N3CCOCC3)c3c2ccn3C)ncc1Cl` [Example 7-29], the IC50 in experiment [1] amounted to 57 nM; in experiment [2] (Mus musculus, 4T1), 480 nM; at FAK, 2000 nM.
The like results for `COc1cc(NCC(C)(C)CO)ccc1Nc1ncc(Cl)c(Nc2ccccc2S(=O)(=O)NC(C)C)n1` [Example 19-22] were, in that order, 3.4 nM, 510 nM and 120 nM.
For `CNS(=O)(=O)c1ccccc1Nc1nc(Nc2cc(OC)ccc2OCCO)ncc1Br` [Example 3-60] the same measures were 90 nM, 2000 nM and 930 nM.
For `CCCS(=O)(=O)c1ccccc1Nc1nc(Nc2ccc(N3CCC(O)C3)cc2OC)ncc1Cl` (stereo not drawn) [Example 26-28], the IC50 was determined as 2.1 nM in experiment [1], 1520 nM in experiment [2] and 500 nM at FAK.
With `CCS(=O)(=O)c1ccccc1Nc1nc(Nc2ccc(N3CCC[C@@H](C(N)=O)C3)cc2OC)ncc1Cl` [Example 27-8], the IC50 in experiment [1] came out at 9.3 nM; in experiment [2] (Mus musculus, 4T1) it was 750 nM; at FAK it was 600 nM.
The like results for `CCC(C)NS(=O)(=O)c1ccccc1Nc1nc(Nc2ccc(OC3CCN(C)CC3)cc2OC)ncc1Cl` (stereo not drawn) [Example 21-3] were, in that order, 1.7 nM, 300 nM and 300 nM.
On to `CCOc1ccc(OCC)c(Nc2ncc(Br)c(Nc3ccccc3S(=O)(=O)NC)n2)c1` [Example 3-55], for which the IC50 in experiment [1] is 34 nM; in experiment [2] (Mus musculus, 4T1) it was 3000 nM; at FAK, > 10000 nM.
For `COc1cc(N2CCN3COCC[C@H]3C2)ccc1Nc1ncc(Cl)c(Nc2ccccc2S(=O)(=O)C(C)C)n1` [Example 28-26] the same measures were 6.6 nM, 570 nM and 200 nM.
As for `CCCS(=O)(=O)c1ccccc1Nc1nc(Nc2ccc(N3CCC(CO)CC3)cc2OC)ncc1Cl` [Example 26-27], the IC50 in experiment [1] was found to be 4.8 nM; in experiment [2] it was 1490 nM; at FAK, 600 nM.
Consider `COc1cc(N2CCC[C@H]2CN2CCCC2)ccc1Nc1ncc(Cl)c(Nc2ccccc2S(=O)(=O)NC(C)C)n1` [Example 19-16], for which the half-inhibitory concentration (IC50) in experiment [1] turned out to be 2.3 nM; in experiment [2] (Mus musculus, 4T1), 1100 nM; against FAK, 700 nM.
The like results for `CNS(=O)(=O)c1ccccc1Nc1nc(Nc2ccc(N(CCOC)CCOC)cc2OC)ncc1Br` [Example 3-42] were, in that order, 29 nM, 300 nM and 350 nM.
Consider `CNS(=O)(=O)c1ccccc1Nc1nc(Nc2ccc(N3CCC(C#N)CC3)cc2OC)ncc1Br` [Example 3-40], for which the IC50 in experiment [1] was 9 nM; in experiment [2] (Mus musculus, 4T1), 900 nM; at FAK, > 10000 nM.
As for `CNS(=O)(=O)c1ccccc1Nc1nc(Nc2cccc3c2ccn3CCCN2CCN(C)CC2)ncc1Cl` [Example 20-9], the IC50 is 2 nM in experiment [1]; 10 nM in experiment [2] (Mus musculus, 4T1); 300 nM against FAK.
For `COc1cc(NC(C)(C)CO)ccc1Nc1ncc(Cl)c(Nc2ccccc2S(=O)(=O)NC(C)C)n1` [Example 19-23] the same measures were 6.4 nM, 710 nM and 700 nM.
On to `COc1cc(N2CCC(NC(C)=O)C2)ccc1Nc1ncc(Cl)c(Nc2ccccc2S(=O)(=O)NC2CCC2)n1` (stereo not drawn) [Example 24-3], for which the IC50 in experiment [1] amounted to 1 nM; in experiment [2] (Mus musculus, 4T1) it was 1080 nM; at FAK, 300 nM.
Take `COc1cc(F)ccc1Nc1ncc(Cl)c(Nc2ccccc2S(=O)(=O)N2CCOCC2)n1` [Example 16B]: the IC50 was 11 nM in experiment [1]; 7000 nM in experiment [2] (Mus musculus, 4T1); 3000 nM on FAK.
With `CNC(=O)c1cc(N2CCN(C)CC2)ccc1Nc1nc(Nc2ccc(F)cc2OC)ncc1Cl` [Example 16-2], the half-inhibitory concentration (IC50) in experiment [1] was 6 nM; in experiment [2] (Mus musculus, 4T1), 600 nM; against FAK it was > 10000 nM.
The like results for `CCNC(=O)c1ccccc1Nc1nc(Nc2cc(N3CCC(N4CCCCC4)CC3)ccc2OC)ncc1Cl` [Example 9-7] were, in that order, 17 nM, 260 nM and > 10000 nM.
In the case of `CNC(=O)c1ccccc1Nc1nc(Nc2ccc(N3CCOCC3)cc2OC)ncc1Br` [Example 8-2], the IC50 in experiment [1] turned out to be 2.4 nM; in experiment [2] (Mus musculus, 4T1) it was 990 nM; at FAK it was 500 nM.
With `CCCS(=O)(=O)c1ccccc1Nc1nc(Nc2ccc(N3CCNC(=O)C3)cc2OC)ncc1Cl` [Example 26-22], the IC50 is < 1 nM in experiment [1], 280 nM in experiment [2] and 100 nM against FAK.
With `CCC(CC)NS(=O)(=O)c1ccccc1Nc1nc(Nc2ccc(OCCN3CCN(C)CC3)cc2OC)ncc1Cl` [Example 23-9], the IC50 came out at 2.1 nM in experiment [1]; 280 nM in experiment [2] (Mus musculus, 4T1); 200 nM on FAK.
For `CCCS(=O)(=O)c1ccccc1Nc1nc(Nc2ccc(N3CCC(NC)C3)cc2OC)ncc1Cl` (stereo not drawn) [Example 26-25], the IC50 was < 1 nM in experiment [1], 730 nM in experiment [2] and 600 nM on FAK.
On to `COc1cc(N2CCC(N3CCCC3)CC2)ccc1Nc1ncc(Cl)c(Nc2ccccc2S(=O)(=O)C(C)C)n1` [Example 28-9], for which the IC50 in experiment [1] came to 3.1 nM; in experiment [2] (Mus musculus, 4T1) it was 360 nM; on FAK it was 500 nM.
As for `CCOc1ccc(-c2ccc(OC)cc2)cc1Nc1ncc(Br)c(Nc2ccccc2S(=O)(=O)NC)n1` [Example 3-30], the IC50 is 69 nM in experiment [1]; 3000 nM in experiment [2] (Mus musculus, 4T1); 600 nM against FAK.
For `COc1cc(N2CCC(N(C)C)C2)ccc1Nc1ncc(Cl)c(Nc2ccccc2S(=O)(=O)C(C)C)n1` (stereo not drawn) [Example 28-22] the same measures were 1.3 nM, 300 nM and 100 nM.
The like results for `CCCS(=O)(=O)c1ccccc1Nc1nc(Nc2ccc(C(=O)N3CCN(C(C)=O)CC3)cc2OC)ncc1Cl` [Example 26-19] were, in that order, 9.2 nM, 790 nM and 430 nM.
The like results for `CNS(=O)(=O)c1ccccc1Nc1nc(Nc2cc(F)ccc2OC)ncc1Cl` [Example 20-23] were, in that order, 30 nM, 3000 nM and 490 nM.
